Results: US9193898B2, “Environmentally friendly dispersion system used in the preparation of inverse emulsion polymers” (priority 2011, dated 2015)

Experiments:
[1] = test system: most sensitive marine species (typically Skeletonema); test: Toxicity to the most sensitive marine species (EC50); details: environmental profile of dispersion system components
Text: (§1) With this in mind, it was desired to create an environmentally friendly oil phase system useful for making inverse emulsion polymers. The adopted definition of environmentally friendly are the rules that govern offshore chemical use in the North Sea. The environmental impact of a chemical is defined by three tests: bioaccumulation, biodegradation and toxicity. In order for a chemical to be used without restriction offshore in the North Sea it must satisfy two of the following three criteria: • 1. Biodegradation must be greater than 60%, if less than 20% it is automatically marked for substitution. • 2. Bioaccumulation as measured by octanol/water partitioning coefficient (log Po/w) must be below 3 (or have a molecular weight>700). • 3. Toxicity to the most sensitive marine species (typically Skeletonema) must be greater than LC50 or EC50 of 10 ppm.

[2] = Text: as §1, with “ppm. […]” for “ppm.”
An embodiment of the present invention is an environmentally friendly oil phase system comprising an organic solvent and lecithin. The immiscible organic solvent can be a hydrocarbon solvent that is aliphatic or at least one oil derived from one or more natural products, and are at least 60% biodegradable after 28 days as determined by the Organization for Economic Cooperation and Development, Procedure OECD 306, its text incorporated by reference. […]

[3] = Bioaccumulation as octanol/water partitioning coefficient (log Po/w); format: physicochemical
Text: as §1

[4] = cited from earlier work

| Substance | Toxicity EC50 [1] [ppm] | Biodegradation, t = 28 days [2] | Bioaccumulation log Po/w [3] | log P [4] |
| --- | --- | --- | --- | --- |
| POE(4)-sorbitan monostearate | 165 | 27 | <3 |  |
| POE(5)-sorbitan monooleate | 20 | 52 | <3 |  |
| sorbitan monooleate |  |  |  | > 3 |
